According to patent US11351164B2, “Inhibitors of indoleamine 2,3-dioxygenase and methods of their use” (BRISTOL-MYERS SQUIBB COMPANY, priority 2016, dated 2022):

Columns and labels:
human IDO1 = target: T1, human IDO1 (Homo sapiens, UniProt P14902); experiment: IDO inhibition assay in HEK293 cells stably expressing human IDO1 (kynurenine, Ehrlich reagent, absorbance 490 nm); type: cell-based; details: 20 hours incubation, read-out: IDO1 HEK Human IC50
T1 construct: expressed in transfected cells
T1 sequence (P14902 whole entry): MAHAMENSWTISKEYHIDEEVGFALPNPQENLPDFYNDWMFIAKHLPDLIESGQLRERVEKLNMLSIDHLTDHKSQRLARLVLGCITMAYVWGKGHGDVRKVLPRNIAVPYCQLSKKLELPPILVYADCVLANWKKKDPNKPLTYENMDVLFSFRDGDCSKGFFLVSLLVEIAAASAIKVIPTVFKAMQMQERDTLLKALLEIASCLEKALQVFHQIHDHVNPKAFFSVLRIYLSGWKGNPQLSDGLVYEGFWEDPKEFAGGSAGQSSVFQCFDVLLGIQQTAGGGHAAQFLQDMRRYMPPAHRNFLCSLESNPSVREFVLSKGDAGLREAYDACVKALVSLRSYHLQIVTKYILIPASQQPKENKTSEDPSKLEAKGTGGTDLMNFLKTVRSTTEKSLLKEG
In short: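 HEK293 clones stably expressing human IDO1 were treated with compound for 20 h at 37 °C in phenol-red-free RPMI with 10% FBS, then stopped with 0.2% TCA and heated at 50 °C for 30 min. Kynurenine was read as absorbance at 490 nm after Ehrlich reagent. IC50 used DMSO as 0% and 500 nM reference standard as 100% inhibition.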

[1] = target: T2, indoleamine 2,3-dioxygenase (IDO) (Homo sapiens, UniProt P14902); experiment: HeLa cell-based indoleamine 2,3-dioxygenase (IDO) assay (IFNγ-induced kynurenine production, absorbance 480 nm); details: HeLa cells, IFNγ 25 ng/mL, 48 hour incubation
T2 construct: host or cells: HeLa cells treated with IFNγ (25 ng/mL)
T2 sequence (P14902 whole entry): as above
Method: Assessment of inhibitor activity in HeLa cell-based indoleamine 2,3-dioxygenase (IDO) assay:
HeLa (ATCC® CCL-2) cells were obtained from the ATCC® and cultured in Dulbecco's Modified Eagle Medium supplemented with 4.5 g/L glucose, […] L-glutamine and […] (#10-013-CV, Corning), 2 mM L-alanyl-L-glutamine dipeptide (#35050-061, Gibco), 100U/mL penicillin, 100 μg/mL stroptomycin (#SV30010. HyClone) and 10% fetal bovine serum (#SH30071.03 HyClone). Cells were maintained in a humidified incubator at 37° C. in 5% CO2.
IDO activity was assessed as a function of kynurenine production as follows: HeLa cells were seeded in a 96-well culture plate at a density of 5,000 cells/well and allowed to equilibrate overnight. After 24 hours, the media was aspirated and replaced with media containing IFNγ (#285-IF/CF, R&D Systems) at a final concentration of 25 ng/mL. A serial dilution of each test compound was added to the cells in a total volume of 200 μL of culture medium. After a further 48 hour incubation, 170 μL of supernatant was transferred from each well to a fresh 96-well plate, 12.1 μL of 6.1N trichloroacetic acid (#T0699, Sigma-Aldrich) was added to each well and mixed, followed by incubation at 65° C. for 20 minutes to hydrolyze N-formylkynurenine, the product of indoleamine 2,3-dioxygenase, to kynurenine. The reaction mixture was then centrifuged for 10 mins at 500×g to sediment the precipitate. 100 μL of the supernatant was transferred from each well to a fresh 96-well plate. 100 μl of 2% (w/v) p-dimethylaminobenzaldehyde (#15647-7, Sigma-Aldrich) in acetic acid (#A6283, Sigma-Aldrich) was added to each well mixed and incubated at room temperature for 20 mins. Kynurenine concentrations were determined by measuring absorbance at 480 nm and calibrating against an L-kynurenine (#K8625, Sigma-Aldrich) standard curve using a SPECTRAMAX® M2e microplate reader (Molecular Devices). The percentage activity at each inhibitor concentration was determined and IC50 values assessed using nonlinear regression.

Work on `C[C@@H](Nc1nnc(-c2ccc(Cl)cc2)s1)[C@H]1CC[C@@H](c2ccnc3ccc(F)cc32)CC1` [Example 24, 5-(4-Chlorophenyl)-N—((R)-1-((1s,4S)-4-(6-fluoroquinolin-4-yl)cyclohexyl)ethyl)-1,3,4-thiadiazol-2-amine] yielded an IC50 (human IDO1) of 5.5 nM and an IC50 [1] of 5.4 nM.
`C[C@@H](Nc1nnc(-c2ccc(C#N)cc2)o1)[C@H]1CC[C@@H](c2ccnc3ccc(F)cc32)CC1` [Example 29, 4-(5-((R)-1-((1s,4S)-4-(6-fluoroquinolin-4-yl)cyclohexyl)ethylamino)-1,3,4-oxadiazol-2-yl)benzonitrile] was tested, and the IC50 (human IDO1) was 23.5 nM and the IC50 [1] was 55.3 nM.
`C[C@@H](c1nnc(-c2cccc(F)c2)[nH]1)[C@H]1CC[C@@H](c2ccnc3ccc(F)cc32)CC1` [Example 14, 6-fluoro-4-((1S,4s)-4-((R)-1-(5-(3-fluorophenyl)-4H-1,2,4-triazol-3-yl)ethyl)cyclohexyl)quinoline] showed an IC50 (human IDO1) of 36.2 nM and an IC50 [1] of 72.2 nM.
With `C[C@@H](c1nnc(-c2ccccc2)[nH]1)[C@H]1CC[C@@H](c2ccnc3ccc(F)cc32)CC1` [Example 13, 6-fluoro-4-((1S,4s)-4-((R)-1-(5-phenyl-4H-1,2,4-triazol-3-yl)ethyl)cyclohexyl)quinoline] the IC50 (human IDO1) was 48.2 nM and the IC50 [1] was 118 nM.
In the case of `C[C@@H](c1nnc(-c2ccc(F)c(Cl)c2)[nH]1)[C@H]1CC[C@@H](c2ccnc3ccc(F)cc32)CC1` [Example 11, 4-((1S,4s)-4-((R)-1-(5-(3-chloro-4-fluorophenyl)-4H-1,2,4-triazol-3-yl)ethyl)cyclohexyl)-6-fluoroquinoline], the IC50 (human IDO1) is reported as 86 nM and the IC50 [1] is reported as 162 nM.
Work on `Cc1cnc(-c2nnc(N[C@H](C)[C@H]3CC[C@@H](c4ccnc5ccc(F)cc54)CC3)o2)s1` [Example 30, N-((R)-1-((1s,4S)-4-(6-fluoroquinolin-4-yl)cyclohexyl)ethyl)-5-(5-methylthiazol-2-yl)-1,3,4 oxadiazol-2-amine] yielded an IC50 (human IDO1) of 10.6 nM and an IC50 [1] of 13.3 nM.
`CC(C)Oc1ccc(-c2nnc([C@H](C)[C@H]3CC[C@@H](c4ccnc5ccc(F)cc54)CC3)o2)cc1` [Example 18, 2-((R)-1-((1s,4S)-4-(6-fluoroquinolin-4-yl)cyclohexyl)ethyl)-5-(4-isopropoxyphenyl)-1,3,4-oxadiazole] was tested, and the IC50 (human IDO1) was 66.3 nM and the IC50 [1] was 55.5 nM.
In the case of `C[C@@H](c1nnc(-c2ccc(Cl)cc2)[nH]1)[C@H]1CC[C@@H](c2ccnc3ccc(F)cc32)CC1` [Example 1, 4-((1s,4s)-4-((R)-1-(5-(4-Chlorophenyl)-4H-1,2,4-triazol-3-yl)ethyl)cyclohexyl)-6-fluoroquinoline], the IC50 (human IDO1) is reported as 47.5 nM and the IC50 [1] is reported as 14.8 nM.
